From patent US20060051764A1, “Thymidylate synthase polymorphisms for use in screening for cancer susceptibility” (priority 2002, published 2006)

Tests used:
[1] = test system: disseminated colorectal cancer; assay: Clinical outcome (response and survival) to protracted infusion of 5-FU in colorectal cancer patients by TS genotype; assay type: in vivo, human
Experimental: To explore the role of SNP as a predictive marker, 40 patients were evaluated with disseminated colorectal cancer (SWOG 9420 and 3C-92-2) for response and survival to protracted infusion of 5-fluorouracil. The distribution of the TS tandem repeat polymorphism was as follows: 2R/2R 20% (8/40), 2R/3R 50% (20/40), and 3R/3R 30% (12/40). […] This relationship also lacked statistical significant (P=0.14, Logrank Test).
Patient samples were re-classified into two groups based on predicted high and low TS expression using the tandem repeat polymorphism and the SNP. Since it was hypothesized that the SNP, or variant 3R (3RV) allele, would decrease the TS gene expression of a 3R allele, 21 patients were grouped with genotypes of 2R/2R, 2R/3RV and 3RV/3RV into the predicted “low TS expression” group (Group A) and 19 patients with 2R/3R, 3R/3RV, and 3R/3R into the predicted “high TS expression” group (Group B). These groups were then re-evaluated for an association between TS genotypes and clinical outcome to 5-FU chemotherapy.
The presence of the new SNP within the TS gene was confirmed in Non-Hispanic Whites. Individuals (disease-free controls) were initially recruited for a cancer case-control study in California as described in Castelao et al., 2001. Patients included in this study has metastatic colorectal cancer and were enrolled in the following protocols: Southwest Oncology Group protocol 9420 (19 patients, 5-FU doses used: CI (continuous infusion) 300 mg/m^2/d v. CI 2600 mg/m^2/d q weekly) opened for accrual in May 1995 and closed in May 1999; and the University of Southern California protocol: 3C-92-2 (21 patients, 5-FU doses used: CI 200 mg/m^2/d q weekly for three weeks followed by one week rest) opened for accrual in September 1992 and closed in June 1995. All patients signed an informed consent to participate in the clinical trial and for evaluation of the TS polymorphism. Genotyping for the TS polymorphism was performed on paraffin-embedded tissues in all patients.
All patients had bi-dimensionally measurable disease at the time of protocol entry. Responders to therapy were classified as those patients whose tumor burden (the sum, overall measurable lesions of the products of the largest diameter and its perpendicular diameter) decreased by 50% or more for at least six weeks. Progressive disease was defined as 25% or more increase in tumor burden (compared to the smallest measurement) or the appearance of new lesions.
Survival was computed as the number of months from the initiation of chemotherapy with 5-FU to death of any cause. Patients who were alive at the last follow-up evaluation were censored at that time.
Contingency tables and Fisher's exact test (Metha et al., 1983) were used to summarize the association of response (grouped as response, stable disease, and progressive disease) to 5-FU with the TS genotypes. Kaplan-Meier plots (Kaplan et al., 1958) and the log-rank test (Miller et al., 1981) were used to compare survival of patients according to TS genotypes. Median survival was calculated based on the Kaplan-Meier estimator. All p-values are two-sided.

[2] = target: T1, USF-1 phosphorylated by cdc2/p34 (Homo sapiens, UniProt P22415 P22415:1-310); assay: EMSA; consensus probe; sequence taken from the listed USF-1 specific oligonucleotide; details: tags: N-terminal 6xHis (pProEX-HTb, E. coli), in vitro phosphorylated with cdc2/p34; chain copies: 2; label: 32P when used as probe
Experimental: When both forms of USF-1 were used in an EMSA assay utilizing the perfect USF-1 consensus element as a probe, only the phosphorylated form was able to bind (FIG. 3B, lanes 2 and 3). Gel mobility shift analyses were performed using recombinant USF-1 with a ³²P-labeled USF-1 specific consensus probe containing an intact E-box site. Lane 1 contained only free probe. Lane 2 was 30 ng of recombinant phospho-USF-1 incubated with probe in the absence of unlabeled competitor oligonucleotides. Lane 3 contained 30 ng of recombinant unphosphorylated USF-1 incubated with probe in the absence of unlabeled specific competitor oligonucleotides. In lanes 4-5, phospho-USF-1 was pre-incubated with 500 molar excess of unlabeled USF-1 specific competitor oligonucleotide and 500 molar excess of nonspecific dIdC competitor, respectively.
Synthetic double-stranded oligonucleotides (Integrated DNA Technologies) corresponding to a wild type (R) or variant (RV) 28 bp tandem repeat sequence from the TS 5′ regulatory region were labeled with [γ-³²P] ATP (Amersham Pharmacia Biotech) according to the Gel-Shift Assay Kit protocol (Promega). For each gel shift reaction, 10,000 cpm of labeled probe 30 ng of recombinant USF-1 for 20 min at room temperature in a 20 μl reaction mixture containing 10 mM Tris-HCl, pH 7.5, 50 mM NaCl, 0.5 mM dithiothreitol, 0.5 mM EDTA, 4% glycerol, 1 mM MgCl₂ and 0.1 μg of poly(dIdC) DNA. […]

[3] = target: T1, USF-1 phosphorylated by cdc2/p34; assay: EMSA; 1 mM MgCl2, 50 mM NaCl, room temperature; details: tags: N-terminal 6xHis (pProEX-HTb, E. coli), in vitro phosphorylated with cdc2/p34; chain copies: 2; label: 32P
Experimental: Since the potential G→C SNP at the 12th nucleotide of the 28 bp repeats lies within the USF binding site, the ability of the recombinant USF-1 protein to bind the variant consensus element by EMSA was tested. […] Gel mobility shift analyses were performed using recombinant USF-1 with a ³²P-labeled 28 bp probe corresponding to one tandem repeat containing a G→C base change at the 12th nucleotide. Lane 1 was free probe. In lane 2, 30 ng of recombinant USF-1 was incubated with probe. In lane 3, 30 ng of phospho-USF-1 was incubated with probe.
Synthetic double-stranded oligonucleotides (Integrated DNA Technologies) corresponding to a wild type (R) or variant (RV) 28 bp tandem repeat sequence from the TS 5′ regulatory region were labeled with [γ-³²P] ATP (Amersham Pharmacia Biotech) according to the Gel-Shift Assay Kit protocol (Promega). For each gel shift reaction, 10,000 cpm of labeled probe 30 ng of recombinant USF-1 for 20 min at room temperature in a 20 μl reaction mixture containing 10 mM Tris-HCl, pH 7.5, 50 mM NaCl, 0.5 mM dithiothreitol, 0.5 mM EDTA, 4% glycerol, 1 mM MgCl₂ and 0.1 μg of poly(dIdC) DNA. Where indicated, unlabeled competitor oligonucleotides were incubated for 10 min at room temperature with nuclear extracts prior to addition of labeled probe.
Reactions using recombinant USF-1 contained ˜30 ng of either USF-1 or phospho USF-1. […]

[4] = target: T1, USF-1 phosphorylated by cdc2/p34; assay: EMSA; 1 mM MgCl2, 50 mM NaCl, room temperature; abolished by USF-1 specific competitor; details: tags: N-terminal 6xHis (pProEX-HTb, E. coli), in vitro phosphorylated with cdc2/p34; chain copies: 2; label: 32P
Experimental: To determine the ability of the phosphorylated form of USF-1 to bind to its consensus element within the TS repeat, an EMSA assay was carried out using the ³²P-labeled 28 bp sequence as a probe corresponding to one tandem repeat containing an intact E-box site. Lane 1 was free probe. In lane 2, 30 ng of recombinant USF-1 was incubated with probe in the absence of unlabeled competitor oligonucleotides. In lane 3, 30 ng of phospho-USF-1 was incubated with probe in the absence of unlabeled competitor oligonucleotides. In lanes 4-6, phospho-USF-1 was pre-incubated with 500 molar excess of: unlabeled probe, USF-1 specific competitor, and non-specific poly (dIdC) competitor oligonucleotides, respectively. Incubation of the phosphorylated form of USF-1 with the probe caused a shift on the gel that was abolished by the addition of unlabeled specific competitor oligonucleotides (FIG. 3C, lanes 3 and 5).
Synthetic double-stranded oligonucleotides (Integrated DNA Technologies) corresponding to a wild type (R) or variant (RV) 28 bp tandem repeat sequence from the TS 5′ regulatory region were labeled with [γ-³²P] ATP (Amersham Pharmacia Biotech) according to the Gel-Shift Assay Kit protocol (Promega). […]

[5] = patients with TS genotype 2R/2R (n = 8)
[6] = patients with TS genotype 2R/3R (n = 20)
[7] = patients with TS genotype 3R/3R (n = 12)

T1 sequence (P22415 whole entry, one chain of several): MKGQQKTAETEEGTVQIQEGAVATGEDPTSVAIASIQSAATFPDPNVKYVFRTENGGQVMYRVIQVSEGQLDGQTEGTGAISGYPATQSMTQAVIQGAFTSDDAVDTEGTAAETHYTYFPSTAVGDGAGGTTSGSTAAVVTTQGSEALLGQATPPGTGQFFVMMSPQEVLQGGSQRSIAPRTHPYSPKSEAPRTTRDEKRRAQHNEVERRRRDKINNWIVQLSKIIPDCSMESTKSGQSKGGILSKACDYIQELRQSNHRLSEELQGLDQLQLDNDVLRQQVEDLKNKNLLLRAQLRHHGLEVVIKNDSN

O=c1[nH]cc(F)c(=O)[nH]1 [5-FU, 5-fluorouracil]
median survival ([1]; 3R/3R carriers): 8.4 months
survival ([1]; Group A, predicted low TS expression (2R/2R, 2R/3RV, 3RV/3RV)): 10.1 months
Clinical Response: Stable Disease ([1]; Group A, predicted low TS expression: 2R/2R, 2R/3RV, 3RV/3RV (n = 21)): 4 (19%)
survival ([1]; Group B, predicted high TS expression (2R/3R, 3R/3RV, 3R/3R)): 7.4 months
Clinical Response: Stable Disease ([1]; Group B, predicted high TS expression: 2R/3R, 3R/3R, 3R/3RV (n = 19)): 7 (37%)
median survival ([1]; heterozygous group (2R/3R)): 7.4 months
median survival ([1]; patients with TS genotype 2R/2R): 16.2 months
Clinical Response: Progression [1, 5]: 3 (37%)
Clinical Response: Stable Disease [1, 5]: 1 (13%)
Clinical Response: Progression [1, 6]: 12 (60%)
Clinical Response: Stable Disease [1, 6]: 5 (25%)
disease response (patients responding/total) ([1]; patients with TS genotype 3R/3R): 0/12
Clinical Response: Progression [1, 7]: 7 (58%)
Clinical Response: Response [1, 7]: 0 (0%)
Clinical Response: Stable Disease [1, 7]: 5 (42%)

B1: USF-1 consensus oligonucleotide (dsDNA)
DNA 1: CACCCGGTCACGTGGCCTACACC
DNA 2: GGTGTAGGCCACGTGACCGGGTG
binding result [2]: binds

B2: TS variant tandem repeat (RV) (dsDNA)
DNA 1: CCGCGCCACTTCGCCTGCCTCCGTCCCG
DNA 2: CGGGACGGAGGCAGGCGAAGTGGCGCGG
binding result [3]: no binding

B3: TS wild-type tandem repeat (R) (dsDNA)
DNA 1: CCGCGCCACTTGGCCTGCCTCCGTCCCG
DNA 2: CGGGACGGAGGCAGGCCAAGTGGCGCGG
binding result [4]: binds
